Source: US20030186943A1, “Substituted gamma-phenyl-delta-lactams and uses related thereto” (Inflazyme Pharmaceuticals Ltd., priority 1998, published 2003)
Where “and” joins values, the source holds several entries; their conditions need not be identical. Equal entries are not always repeated. Where two headings read alike, the source gives them in different places.

Legend:
[1] = test system: cAMP response element luciferase activity in human U937 monocytic cells; experiment: Potentiation of forskolin-induced CRE-luciferase activity in U937 cells; format: cell-based; settings: U-937, U937 cells co-incubated with 10 μM forskolin, 4 hours, X marks this range
Description: Compounds of the present invention were thereby shown to provide potentiated luciferase expression in U937 cells treated with the adenylyl cyclase activator forskolin.
Human pro-monocytic U937 cells were maintained in RPMI medium containing 10% FCS and 2 mM […]. U937 cells were transiently transfected as described in Biotechniques Vol. 17(6):1058, 1994. Briefly, cells were grown in medium containing serum to a density of 5×10^6 cells/mL and then resuspended in media containing serum at a density of approximately 1×10^7 cells/mL. 400 μL of cells were transferred into the electroporation cuvette containing 10 μg of the reporter vector (PCRE-luc) in a volume of 40 μL H2O. Reporter vector DNA was prepared from DH5α E. coli using the DNA […] free kit (Qiagen) as per manufacturers instructions. U937 cells were clectroporated at room temperature using a BIORAD electroporator. Capacitance was set to 1050 μF and voltage was 280V. The time constant was noted after each electroporation. Cells were then diluted in 4 mL of media and serum and 200 μL of cells were plated per well. Cells were allowed to recover for 16-18 hours. Cells were then treated with a test compound or vehicle in the presence or absence of 10 μM forskolin for 4 hours at 37° C.
The luciferase assay was performed as per manufacturers instructions (Tropix). Briefly, cells were centrifuged for 4 minutes at 1200 rpm and media supernatant was removed. Cell pellets were lysed in 15 μL Lysis buffer (Tropix). Luciferase assay was performed using 10 μL of cell lysate with 10 μL of buffer A and 25 μL buffer B. Luciferase activity was obtained using a luminometer with a 5-second delay followed by a read time of 10 seconds.

[2] = test system: High Affinity Rolipram Binding Site of PDE4 in Mouse Brain; experiment: Displacement of [3H]-rolipram from its high affinity binding site (HARBS); settings: ratio of IC50 for PDE4 catalytic activity to concentration displacing 50% of rolipram from HARBS
Description: Suspension was centrifuged twice at 30,000×G at 4° C. and the supernatant discarded. The pellet was resuspended in buffer, and adjusted to a protein concentration of 0.5 mg/mL. Drugs to be tested were dissolved in DMSO and pipetted in triplicate into a 96 well microplate at concentrations ranging from 1 to 30,000 nM. […] The plate was incubated at 4° C. for 1 hour. Contents of the plate were aspirated through a Whatman GF/C filterplate, and rinsed with 4×200 μL ice-cold buffer. […] Triplicate determinations were performed at each concentration.

[3] = test system: primary human neutrophils; experiment: Generation of reactive oxygen species by fMLP-activated neutrophils (luminol-enhanced chemiluminescence); format: cell-based; settings: Neutrophil
Description: Neutrophil activation can be measured by quantitation of ROS generated in vitro. Measurement of ROS allows specific quantitation of a pro-inflammatory species and is also a general measure of neutrophil activation. The most sensitive method for measuring the production of ROS by neutrophils is luminol-enhanced chemiluminescence. […] The assay system used to evaluate the ability of compounds to inhibit ROS generation in neutrophils is indicative of anti-inflammatory activity that may be efficacious in disease states including but not limited to rheumatoid arthritis and inflammatory bowel disease.
Freshly isolated primary human neutrophils (5×10^6 cells/mL) were incubated with the required concentrations of compound or vehicle for 30 minutes at 37° C. in HBSS buffer (pH 7.4) containing Ca^2+. 100 nM wortmannin was used as a positive control. Aliquots of each sample were transferred to a microtitre plate to which luminol (1 μM); obtained from Sigma; Catalogue No. A8511 is added. Activation of the neutrophils was immediately initiated by addition of (1 μM) fMLP; obtained from Sigma, Catalogue No. F3506. Light output from each well was recorded for 30 minutes in a microplate luminometer. Total light output (integral of the time-course) was determined for each well. Inhibitory activities of test drugs against neutrophil ROS generation is expressed as percentage activity relative to a no drug control (100% activation or generation of ROS) containing 0.25% DMSO. Concentration of test compound required to inhibit the generation of ROS to 50% of control values (IC50's) were determined from concentration-response curves by non-linear regression analysis.

[4] = biological target: T1, cAMP phosphodiesterase 3 from human platelets (Homo sapiens, UniProt Q14432); experiment: Inhibition of cAMP phosphodiesterase 3 from human platelets; format: biochemical; settings: for IC50: PDE3, platelet cell extract, X marks this range
T1 construct: from tissue; host or cells: human platelets, cytoplasmic extract
Description: Compound 12 was screened for activity against 5 of the major classes of mammalian cyclic nucleotide phosphodiesterase (termed PDE 1 through 5). PDE's 1 through 4 utilize cAMP as substrate while PDE 5 uses cGMP. The broad specificity PDE inhibitor 3-isobutyl-1-methylxanthine (IBMX; Sigma; Catalogue No. 17018)) was used as a positive control in all assays. PDE's for the various assays were partially purified from the following cells/tissues; PDE 1 (bovine heart), PDE 2 (human platelets), PDE 3 (human platelets), PDE 4 (human promonocytic U937 cells) and PDE 5 (human platelets).
Platelet cell extracts were prepared as described above for the U937 cells. The PDE3 assay was performed using platelet cell extract as described above for the PDE 4 assay. Platelets contain PDE 2, 3 and 5. However PDE2 and 5 preferentially utilize cGMP, so in an assay with cAMP as a substrate they are not detected.

[5] = test system: TNBS-induced colitis in the rat; experiment: TNBS-induced colitis model of inflammatory bowel disease in the rat;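 further: rat colitis induced by intracolonic TNBS in 50% ethanol, distal colon assessed at sacrifice on day 7, with saline-instilled vehicle-treated rats as controls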
Description: Colitis was induced by intracolonic instillation of the hapten TNBS (60 mg/mL) in 0.5 mL of 50% ethanol. […] An additional group of rats received saline intracolonically in place of TNBS/ethanol and was treated with vehicle at the same times as outlined above. Body weights were recorded at the beginning of the study and at days 2 and 7.
The rats were sacrificed on the 7th day after the induction of colitis and the extent of damage and inflammation was assessed. After the rats were sacrificed, the distal colon was removed and pinned out on a wax platform. The presence or absence of diarrhea was noted, as well as the presence and severity of adhesions between the colon and other organs, and the severity and extent of colonic damage. […] After scoring, a sample of colonic tissue was excised for measurement of myeloperoxidase activity as an index of granulocyte infiltration (see Wallace et al., Gastroenterology 117: in press, 1999; and Morris et al., Gastroenterology 96:795-803, 1989). This tissue sample was 1 cm long (along the axis of the colon) and 5 mm wide and was taken from a region of macroscopically visible damage (or the corresponding region in any rats in which there was no damage). The remainder of the tissue was fixed in neutral buffered formalin and processed by routine methods for subsequent evaluation by light microscopy. In a blinded manner, the sample of colonic tissue from each rat was examined for evidence of mucosal ulceration and inflammation. The percentage of the luminal surface of the section in which ulceration was present was calculated.

[6] = read-out: IC50 RANGE (μM) <1, ROS production, X marks this range
[7] = read-out: EC50 range (μM) 0.1-1
[8] = ROS production, X marks this range, read-out: IC50 RANGE (μM) 1-10
[9] = read-out: IC50 range (μM) 10-100
[10] = read-out: IC50 RANGE (μM) >100, ROS production, X marks this range
[11] = 100 mg/kg intracolonically at 12 h intervals for one week
[12] = 100 mg/kg intracolonically at 12 h intervals for one week, day 7

T1 sequence (Q14432 whole entry): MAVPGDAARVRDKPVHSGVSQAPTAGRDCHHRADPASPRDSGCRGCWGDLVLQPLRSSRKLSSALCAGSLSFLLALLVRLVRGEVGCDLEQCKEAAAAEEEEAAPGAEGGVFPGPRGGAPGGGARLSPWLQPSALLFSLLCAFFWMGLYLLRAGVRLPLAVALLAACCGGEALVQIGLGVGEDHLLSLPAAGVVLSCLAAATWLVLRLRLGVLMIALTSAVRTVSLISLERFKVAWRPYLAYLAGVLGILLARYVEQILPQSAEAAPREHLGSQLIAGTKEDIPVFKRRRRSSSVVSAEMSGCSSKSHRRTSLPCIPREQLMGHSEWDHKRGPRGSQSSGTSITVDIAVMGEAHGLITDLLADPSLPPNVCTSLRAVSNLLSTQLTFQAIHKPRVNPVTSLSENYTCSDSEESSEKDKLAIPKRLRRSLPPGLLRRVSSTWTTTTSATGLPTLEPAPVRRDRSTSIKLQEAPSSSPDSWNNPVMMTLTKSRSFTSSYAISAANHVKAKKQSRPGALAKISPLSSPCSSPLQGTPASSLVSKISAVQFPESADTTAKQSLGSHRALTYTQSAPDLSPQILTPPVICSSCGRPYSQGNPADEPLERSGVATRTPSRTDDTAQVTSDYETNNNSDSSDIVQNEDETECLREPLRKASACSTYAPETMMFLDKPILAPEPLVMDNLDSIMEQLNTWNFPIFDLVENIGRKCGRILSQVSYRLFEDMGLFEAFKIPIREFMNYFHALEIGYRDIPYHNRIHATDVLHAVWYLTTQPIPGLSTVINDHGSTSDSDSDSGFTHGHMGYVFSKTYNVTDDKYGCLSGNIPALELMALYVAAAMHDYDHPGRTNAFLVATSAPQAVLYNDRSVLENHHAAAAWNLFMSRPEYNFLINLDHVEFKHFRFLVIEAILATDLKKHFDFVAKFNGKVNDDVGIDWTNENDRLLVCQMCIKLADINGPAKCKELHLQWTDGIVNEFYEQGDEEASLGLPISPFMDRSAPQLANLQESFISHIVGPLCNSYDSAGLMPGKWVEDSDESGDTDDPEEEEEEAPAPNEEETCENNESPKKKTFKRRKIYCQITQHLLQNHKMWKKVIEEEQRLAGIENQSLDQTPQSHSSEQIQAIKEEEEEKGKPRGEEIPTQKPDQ

Row | SMILES | EC50 ([1]; read-out: EC50 range (μM) 1-25) | PDE4:HARBS [2] | IC50 [4] | other results
1 | COc1ccc(N)cc1CC1C[C@@H](c2ccc(OC)c(OC3CCCC3)c2)COC1=O (stereo partly shown) [Compound 186] | – | >1 | – | –
2 | COc1ccc([C@H]2COC(=O)C(Cc3cccc(N)c3)C2)cc1OC1CCCC1 (stereo partly shown) [Compound 184] | 1 to 25 µM | >1 | > 100 µM | IC50 [3, 6]: < 1 µM
3 | COc1ccc([C@H]2COC(=O)C(Cc3ccc4c(c3)OCO4)C2)cc1OC1CCCC1 (stereo partly shown) [Compound 171] | – | <1 | – | –
4 | CCCCCCCOc1cc([C@@H]2CCC(=O)OC2)ccc1OC [Compound 161] | – | <1 | > 100 µM | EC50 ([1]; read-out: EC50 range (μM) >25): > 25 µM
5 | COc1ccc([C@@H]2CCC(=O)NC2)cc1OC1CCCC1 [Compound 58] | – | >1 | > 100 µM | EC50 [1, 7]: 0.1 to 1 µM; IC50 [3, 6]: < 1 µM
6 | CCCCCOc1cc([C@@H]2CCC(=O)OC2)ccc1OC [Compound 159] | – | >1 | > 100 µM | EC50 ([1]; read-out: EC50 range (μM) >25): > 25 µM
7 | COc1ccc([C@H]2COC(=O)C(Cc3cccc([N+](=O)[O-])c3)C2)cc1OC1CCCC1 (stereo partly shown) [Compound 175] | 1 to 25 µM | <1 | > 100 µM | IC50 [3, 8]: 1 to 10 µM
8 | COc1ccc(CC2C[C@@H](c3ccc(OC)c(OC4CCCC4)c3)COC2=O)cc1O (stereo partly shown) [Compound 180] | – | >1 | – | –
9 | COc1ccc([C@H]2COC(=O)C(Cc3ccccc3)C2)cc1OC (stereo partly shown) [Compound 139] | 1 to 25 µM | – | > 100 µM | IC50 [3, 10]: > 100 µM
10 | COc1ccc([C@H]2COC(=O)C(Cc3ccc(F)c(F)c3)C2)cc1OC (stereo partly shown) [Compound 77] | 1 to 25 µM | – | – | IC50 [3, 10]: > 100 µM; IC50 [4, 9]: 10 to 100 µM
11 | COc1ccc([C@H]2COC(=O)C(Cc3ccc(O)c(N)c3)C2)cc1OC1CCCC1 (stereo partly shown) [Compound 94] | – | >1 | > 100 µM | EC50 [1, 7]: 0.1 to 1 µM; IC50 [3, 6]: < 1 µM
12 | COc1ccc([C@H]2COC(=O)C(Cc3ccc(OCc4ccccc4)c(OC)c3)C2)cc1OC (stereo partly shown) [Compound 22] | 1 to 25 µM | <1 | > 100 µM | IC50 [3, 10]: > 100 µM
13 | COc1ccc([C@H]2COC(=O)C(Cc3ccc(N)cc3)C2)cc1OC1CCCC1 (stereo partly shown) [Compound 185] | – | >1 | – | –
14 | COc1ccc([C@H]2COC(=O)C(Cc3cccc(O)c3)C2)cc1OC1CCCC1 (stereo partly shown) [Compound 182] | – | <1 | – | –
15 | Nc1ccc(O)c(C(=O)O)c1 [Compound 5-ASA, 5-aminosalicylic acid] | – | – | – | Body Weight Change (%) [5, 11]: −20.2 ± 3.4%; Mortality [5, 11]: 0/8; Adhesion (Incidence) [5, 12]: (7/8); Adhesion Score [5, 12]: 1.4 ± 0.3; Bowel Thickness (mm) [5, 12]: 2.66 ± 0.69 mm; Damage Score [5, 12]: 6.3 ± 0.8; Global Colitis Score [5, 12]: 10.41 ± 1.58; loss of body weight ([5]; 100 mg/kg, one-week study): ~20%; MPO Activity (U/mg) ([5]; colonic tissue, 100 mg/kg intracolonically at 12 h intervals for one week, day 7): 67.5 ± 8.8 U/mg; Diarrhea ([5]; incidence, 100 mg/kg intracolonically at 12 h intervals for one week, day 7, 100 mg/kg): significantly reduce and 1/8; Histology Score ([5]; percentage of luminal surface ulcerated, 100 mg/kg intracolonically for one week, day 7): 91.4 ± 5.9
16 | COc1ccc([C@H]2COC(=O)C(C)C2)cc1OC1CCCC1 (stereo partly shown) [Compound 95] | – | – | > 100 µM | –
17 | COc1cc2c(cc1OC)-c1c/c(=N\c3c(C)cc(C)cc3C)n(C)c(=O)n1CC2 [trequinsin, reference compound] | – | – | – | effect in PDE3 assay ([4]; platelet cell extract, cAMP as substrate): potent inhibitor
18 | CCCCCCOc1cc([C@@H]2CCC(=O)OC2)ccc1OC [Compound 160] | 1 to 25 µM | <1 | > 100 µM | –
19 | COc1ccc([C@@H]2CCC(=O)OC2)cc1OCC1CCCCC1 [Compound 158] | – | <1 | > 100 µM | EC50 [1, 7]: 0.1 to 1 µM
20 | COc1ccc([C@@H]2CCC(=O)N(Cc3ccccc3)C2)cc1OC [Compound 47] | 1 to 25 µM | – | – | IC50 [3, 8]: 1 to 10 µM; IC50 [4, 9]: 10 to 100 µM
21 | COc1ccc([C@H]2COC(=O)C(Cc3ccc(O)cc3)C2)cc1OC1CCCC1 (stereo partly shown) [Compound 183] | – | <1 | – | –

Further lines, with some results ahead:

Row | EC50 ([1]; read-out: EC50 range (μM) 1-25) | PDE4:HARBS [2] | IC50 [4] | SMILES | other results
22 | 1 to 25 µM | >1 | – | CCOc1cc(C2CCC(=O)OC2)ccc1OC (stereo not shown) [Compound 153] | IC50 [3, 6]: < 1 µM
23 | – | <1 | > 100 µM | COc1ccc(CC2(Cc3ccc(OC)c(O)c3)C[C@@H](c3ccc(OC)c(OC4CCCC4)c3)COC2=O)cc1O [Compound 181] | EC50 ([1]; read-out: EC50 range (μM) >25): > 25 µM; IC50 [3, 8]: 1 to 10 µM
24 | – | >1 | – | COc1ccc([C@H]2COC(=O)C(Cc3ccc(C)c([N+](=O)[O-])c3)C2)cc1OC1CCCC1 (stereo partly shown) [Compound 176] | –
25 | 1 to 25 µM | – | – | COc1ccc([C@H]2COC(=O)C(Cc3ccc(O)c(O)c3)C2)cc1OC (stereo partly shown) [Compound 80] | IC50 [3, 6]: < 1 µM; IC50 [4, 9]: 10 to 100 µM
26 | – | – | > 100 µM | CCCCCCCCOc1cc([C@@H]2CCC(=O)OC2)ccc1OC [Compound 162] | EC50 ([1]; read-out: EC50 range (μM) >25): > 25 µM
27 | 1 to 25 µM | >1 | – | CCCOc1cc(C2CCC(=O)OC2)ccc1OC (stereo not shown) [Compound 154] | IC50 [3, 6]: < 1 µM
28 | 1 to 25 µM | <1 | > 100 µM | COc1ccc([C@H]2COC(=O)C(Cc3ccccc3)C2)cc1OC1CCCC1 (stereo partly shown) [Compound 168] | IC50 [3, 6]: < 1 µM
29 | 1 to 25 µM | – | > 100 µM | COc1ccc([C@H]2COC(=O)C(Cc3cccc(O)c3)C2)cc1OC (stereo partly shown) [Compound 131] | IC50 [3, 6]: < 1 µM
30 | – | – | > 100 µM | COc1ccc([C@H]2COC(=O)C(Cc3ccc(O)c(N)c3)C2)cc1Cc1ccccc1 (stereo partly shown) [Compound 114] | –
31 | – | <1 | – | COc1ccc([C@H]2COC(=O)C(Cc3cccc(C(F)(F)F)c3)C2)cc1OC1CCCC1 (stereo partly shown) [Compound 169] | –
32 | – | <1 | – | COc1ccc([C@H]2COC(=O)C(Cc3cccc(OCc4ccccc4)c3)C2)cc1OC1CCCC1 (stereo partly shown) [Compound 172] | –
33 | – | >1 | – | COc1ccc([C@H]2COC(=O)C(Cc3ccc(C)c(N)c3)C2)cc1OC1CCCC1 (stereo partly shown) [Compound 187] | –
34 | – | – | > 100 µM | C=CCC1C[C@@H](c2ccc(OC)c(OC3CCCC3)c2)COC1=O (stereo partly shown) [Compound 96] | –
